The subject of series [1] is ES-2 tumors xenografted into nude mice. The series is described as follows: ES-2 xenograft study in nude mice. Type of series: in vivo, BALB/c-nu mice. How it is done: (§1) Five- to six-week-old female (15–20 g) athymic nude mice (BALB/c-nu) were obtained from Shanghai SLAC Laboratory Animal Corporation, China. The animals were housed in sterile cages under laminar flow hoods in a temperature controlled room with a 12-hour light/12-hour dark cycle, and fed autoclaved chow and water ad libitum. All experiments were carried out in accordance with the guidelines for the welfare ethics of experimental animals. All the animal-related procedures were approved by the Animal Ethical Committee of Zhejiang University.
(§2) Cultured ES-2 ovarian cancer cells were resuspended at 1 × 10^7/ml and inoculated subcutaneously into the nude mouse armpit. When tumors reached 60 mm^3, they were extracted, cut into pieces of about 2 mm^3, and inoculated subcutaneously into the nude mouse armpit. When the tumors reached an average volume of about 100 mm^3, the mice were randomly divided into five groups (n = 10). Groups 1–3 received intra-tumor injection of CB-LHRH’ twice daily at 12.5, 25 or 50 mg/kg^.d, respectively.
Tumor volumes were assessed every 3 d as 0.5 × length × width^2 (where length is the longest diameter across the tumor and width the corresponding perpendicular diameter as measured by calipers). On day 13, 4 h after the last dose, mice were sacrificed, and tumors excised and weighed; tumor growth inhibition rate was derived as (1-tumor weight treated/tumor weight control) × 100 %.
Anti-tumor activity was evaluated as relative growth of tumor volume (T/C, value), the mean relative tumor volume (RTV) for the treatment group divided by the mean RTV for the control group, as follows: T/C (%) = TRTV/CRTV X 100 %. RTV = Vt/V0, where Vt is the volume on any given day, and V0 the volume at treatment start.

The test system of series [2] is four cancer cell lines (SKOV-3, ES-2, NIH:OVCAR-3, HEC-1A). Details: method as in ATCC Global Bioresource Center (USA). The settings on record: ref ATCC Global Bioresource Center (USA); cited from earlier work.
The subject of series [3] is Pseudomonas aeruginosa. The series is described as follows: Antibacterial assay (agar dilution), Pseudomonas aeruginosa. Type of series: cell-based. The settings on record: Muller Hinton’s agar, 22 h at 35 °C, clinical isolates, listed as Cecropin B-LHRH’. How it is done: (§3) The antibacterial activity of CB-LHRH’ was evaluated by the agar dilution method. Muller Hinton’s agar medium plates containing serial dilutions of CB-LHRH’ were inoculated with 2 μL of tenfold-diluted 0.5 McF bacteria and incubated for 22 h at 35 °C. The lowest concentration of CB-LHRH’ inhibiting bacterial growth was considered the minimal inhibitory concentration (MIC). Nine clinical strains of the following species were evaluated: Staphylococcus aureus, Klebsiella pneumoniae, Escherichia coli, Enterobacter cloacae, Pseudomonas aeruginosa, and Acinetobacter baumannii.
(In agar dilution, organisms are placed on agar that contains the substance at set levels.)

The test system of series [4] is Klebsiella pneumoniae. The series can be described thus: Antibacterial assay (agar dilution), Klebsiella pneumoniae. The format is cell-based. The settings on record: Muller Hinton’s agar, 22 h at 35 °C, clinical isolates. How it is done: as §3
The subject of series [5] is nude mice. The series is described as follows: General toxicity (survival, body weight) in ES-2 xenograft mice. The settings on record: for surviving mice: intra-tumoral, twice daily, thirteen days later, n = 10 (PBS: 9 survived). Type of series: in vivo, BALB/c-nu mice. How it is done:
as §1, §2
General toxicity was evaluated based on body weight, measured weekly.

Series [6] deals with guinea pigs. The series can be described thus: Hypersensitization test in guinea pigs. The settings on record: n = 6.
Experimental: Under approved animal research protocol standards, the hypersensitive reaction against CB-LHRH’ (2 mg/mL, equal to 438 μM) was assessed in guinea pigs. According to the Chinese Pharmacopoeia, six animals with an average weight of 250 g (XiFengYang Special Economic Animal Farm, Huzhou, China) were administered an intraperitoneal injection of 0.5 mL of CB-LHRH’ every other day three times, while three additional animals received PBS physiological saline injections. Of the six animals administered CB-LHRH’, three received an intravenous injection of 1 mL CB-LHRH’ at day 15, and the remaining three at day 22. Allergic reactions, such as piloerection, sneezing, lacrimation, dyspnoea, and hyperspasmia, were then monitored for the next 30 min.
Series [7] concerns Escherichia coli. The series can be described thus: Antibacterial assay (agar dilution), Escherichia coli. Type of series: cell-based. The settings on record: Muller Hinton’s agar, 22 h at 35 °C, clinical isolates. How it is done:
as §3

The subject of series [8] is Enterobacter cloacae. The series is described as follows: Antibacterial assay (agar dilution), Enterobacter cloacae. The settings on record: Muller Hinton’s agar, 22 h at 35 °C, clinical isolates. The format is cell-based. How it is done: as §3
In series [9] the test system is Staphylococcus aureus. The series can be described thus: Antibacterial assay (agar dilution), Staphylococcus aureus. Type of series: cell-based. The settings on record: Muller Hinton’s agar, 22 h at 35 °C, clinical isolates, listed as Cecropin B-LHRH’. The method, then:
as §3

For series [10], the system named is Acinetobacter baumannii. The series can be described thus: Antibacterial assay (agar dilution), Acinetobacter baumannii. Type of series: cell-based. The settings on record: Muller Hinton’s agar, 22 h at 35 °C, clinical isolates. The method, then: as §3
In series [11] the target is T1, LHRH receptor (LHRHr) (Rattus norvegicus, UniProt P30969).
T1 chain: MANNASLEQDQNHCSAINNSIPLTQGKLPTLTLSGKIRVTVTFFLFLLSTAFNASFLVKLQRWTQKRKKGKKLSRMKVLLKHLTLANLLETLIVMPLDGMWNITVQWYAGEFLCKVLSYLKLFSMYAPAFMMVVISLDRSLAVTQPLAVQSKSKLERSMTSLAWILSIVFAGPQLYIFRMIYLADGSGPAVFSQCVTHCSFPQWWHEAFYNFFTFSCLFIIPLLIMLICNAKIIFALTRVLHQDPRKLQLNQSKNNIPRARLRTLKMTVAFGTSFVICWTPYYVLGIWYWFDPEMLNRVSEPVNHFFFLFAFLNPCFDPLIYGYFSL
The series is described as follows: radioligand saturation binding (Scatchard), rat pituitary membranes.

Entries after “also recorded” stand apart in the source; their conditions may differ. No end group written: not given here.

A word on the T/C: it is the ratio of treated to control. In general, MIC refers to the lowest concentration found to suppress growth. High values mean a need for much substance, low ones inhibition by little substance. For orientation: Kd means the free concentration of one partner at which half of the binding sites on the other are occupied at equilibrium, for simple one-to-one binding. A higher Kd goes with a looser complex.

For `N.N.[Cl][Pt][Cl]` [Cisplatin], the “Tumor Volume, d 1” value in [1] (cisplatin 0.67 mg/kg.d (2 mg/kg once every 3 days), d 1, Mean ± SD, n = 10 per group) was 343.91 ± 123.06 mm^3. Besides, the “Tumor Volume, d 13” value in series [1] (cisplatin 0.67 mg/kg.d (2 mg/kg once every 3 days), d 13, Mean ± SD, ** P < 0.01 vs PBS) is given as 913.16 ± 142.64** mm^3. This molecule came in with a T/C in [1] (cisplatin 0.67 mg/kg.d (2 mg/kg once every 3 days), d 13, RTV treated/RTV PBS control, ≤60 % = active) of 42%. Also, the “Tumor Weight” value in series [1] (cisplatin 2 mg/kg once every 3 days, d 13, Mean ± SD, **P < 0.01 vs PBS) was 1.09 ± 0.25 ** g. Also, the “resistance of the cell lines to the drug” value in [2] is “resistant”.
Consider `COc1cccc2c1C(=O)c1c(O)c3c(c(O)c1C2=O)C[C@@](O)(C(=O)CO)C[C@@H]3O[C@H]1C[C@H](N)[C@H](O)[C@H](C)O1` [doxorubicin], for which the “resistance of the cell lines to the drug” value in [2] is reported as “resistant”.
With “KWKVFKKIEKMGRNIRNGIVKAGPAIAVLGEAKALSYGLRPG [CB-LHRH’]”, the MIC result was “> = 15.44 μM” in series [3]; 3.86 to 7.72 µM in series [4]; 3.86 to 7.72 µM in series [7]; 3.86 to 7.72 µM in [8]; over 15.44 µM in [9]; 1.93 to 7.72 µM in series [10]. The figures for the surviving mice in [5] (CB-LHRH’ 12.5 mg/kg.d), in [5] (CB-LHRH’ 25 mg/kg.d) and in [5] (CB-LHRH’ 50 mg/kg.d) were 8, 9 and 7, respectively. Also, the animal weights result in series [5] (CB-LHRH’ intra-tumoral, by day 13) is on record as “no differences were found in animal weights”. The hypersensitivity / anaphylaxis entry in [6] (0.5 mL of 2 mg/mL i.p. every other day three times, then 1 mL i.v. at day 15 or 22, monitored 30 min, data not shown) is “no hypersensitivity; also recorded: No anaphylaxis occurred in any of the six guinea pigs; also recorded: no hypersensitive reactions in guinea pigs”. Further, in series [6] (0.5 mL of 2 mg/ml i.p. every other day three times), the survival entry is “survived the 15 days of treatment”.
diphtheria toxin: the “resistance of the cell lines to the drug” value in [2] was “resistant”.
On to KWKVFKKIEKMGRNIRNGIVKAGPAIAVLGEAKALSYGLRPG (also: 125I-labelled) [Cecropin B-LHRH' (CB-LHRH')], for which the Kd in series [11] is 0.253 nM.

The values above are taken from paper PMC4809036, “Antitumor effects of cecropin B-LHRH’ on drug-resistant ovarian and endometrial cancer cells” (BMC Cancer, 2016).
